Test results reported in patent US12409150B2, “pH-sensitive carbon nanoparticles, preparation method therefor, and drug delivery using same” (PCE Tech Co., Ltd., priority 2018, dated 2025).

Tests used:
[1] = cited from earlier work
[2] = Active oxygen generation, singlet oxygen sensor green (SOSG), 670 nm laser; conditions: for singlet oxygen generation: 670 nm laser, 20 mW/cm^2
Method: A singlet oxygen sensor green (SOSG) capable of detecting singlet oxygen was used to confirm the generation of active oxygen in particles of a pH-sensitive photodynamic therapeutic agent prepared in the above Example 5.
Specifically, 1 ml of a solution in which SOSG was dissolved and 1 ml of a solution in which a pH-sensitive carbon nanoparticle-based photodynamic therapeutic agent was dissolved were mixed, and a 670 nm laser was irradiated. The laser was irradiated with an energy of 20 mW/cm^2, and the fluorescence intensity was measured using a fluorescence spectrophotometer every 10 seconds (0.2 J/cm^2) to confirm the generation of active oxygen. In addition, in order to measure the efficiency of generating reactive oxygen species according to pH, 1 ml of a solution in which a pH-sensitive photodynamic therapeutic agent having pH 7.4, the pH in vivo and a pH of 6.5 in a cancer environment, was dissolved and 1 ml of a SOSG solution were mixed, and a 670 nm laser is irradiated. The laser was irradiated with an energy of 50 mW/cm^2, and the fluorescence intensity was measured using a fluorescence spectrophotometer every 10 seconds (0.5 J/cm^2) to confirm the generation of active oxygen species.

[3] = test system: CT-26 (Mouse colon cancer) cells; test: Intracellular influx according to pH, confocal microscopy; type: cell-based; conditions: pH 7.4, 4 hours
Method: In order to confirm the influx effect into cancer cells at pH 7.4 and pH 6.5 using the pH-sensitive photodynamic therapeutic agent prepared in the above Example 5, CT-26 (Mouse colon cancer) cells were used. The pH-sensitive carbon nanoparticle-based photodynamic therapeutic agent was treated for 4 hours in the culture solutions of pH 7.4 and pH 6.5, respectively, and chlorine e6 was treated alone as a control group for comparative evaluation. The intracellular influx was analyzed by fluorescence (460, 665 nm) of carbon nanoparticles and chlorine e6 using confocal microscopy.

[4] = test system: CT-26 (Mouse colon cancer) cells; test: Photodynamic cancer cell killing at pH 6.5, MTT assay; conditions: pH 6.5, 1 μg/ml based on chlorine e6, 670 nm laser irradiated (+), 2 J/cm^2
Method: In order to confirm the cancer cell killing effect of the pH-sensitive photodynamic therapeutic agent prepared in the above Example 5 at a cancer environment pH of 6.5, CT-26 (Mouse colon cancer) cells were used. Samples of the pH-sensitive carbon nanoparticle-based photodynamic therapeutic agent and chlorine e6 alone as other comparative group and carbon nanoparticles without pH sensitivity (Comparative Example 1) were treated with 1 μg/ml based on the concentration of chlorine e6 in the pH 6.5 culture medium, equally and a 670 nm laser was irradiated thereto. The laser was irradiated for […] (2 J/cm^2) with an energy of 50 mW/cm^2. Cell death was performed using the MTT assay, and analyzed at 570 nm using a microplate reader.

[5] = test system: CT-26 (Mouse colon cancer) cells; test: In vivo behavior, in vivo fluorescence imaging for 24 hours; set-up: species or system BALB/c nude mice; conditions: intravenous, 0.4 mg/ml based on chlorine e6, 24 hours
Method: In order to confirm the in vivo behavior of the pH-sensitive photodynamic therapeutic agent prepared in the above Example 5, CT-26 (Mouse colon cancer) cells were inoculated into BALB/c nude mice. When the size of the cancer tissue reaches about 50-100 mm^3, a pH-sensitive photodynamic therapeutic agent (Ce6@CDs) and chlorine e6 alone formulation (Free Ce6) as a comparative group were injected intravenously at 0.4 mg/ml based on chlorine e6, and for 24 hours after then, the in vivo behavior was confirmed using in vivo fluorescence imaging (fluorescence-labeled bioimaging instrument) hourly.

[6] = test system: CT-26 (Mouse colon cancer) cells; test: In vivo photodynamic anticancer and immune anticancer effect, both cancer tissues for 15 days; set-up: species or system BALB/c mice; conditions: 0.4 mg/ml based on chlorine e6 i.v.
Excerpt: In order to confirm the anticancer effect in vivo and the anticancer effect due to photodynamic-based immunity induction of the pH-sensitive photodynamic therapeutic agent prepared in the above Example 5, CT-26 (Mouse colon cancer) cells were inoculated subcutaneously in the left leg of BALB/c mice (1×10^6 cells) and the right leg (5×10^5 cells). When the size of the cancer tissue reaches about 50 mm^3, a pH-sensitive photodynamic therapeutic agent, chlorine e6 alone formulation as a comparative group, pH-sensitive carbon nanoparticles without drug encapsulation, and PBS were injected intravenously at 0.4 mg/ml based on chlorine e6, and after 24 hours after intravenous injection, only the left cancer tissue was irradiated with a laser. This was repeated twice, and the laser was irradiated for 1000 seconds (100 J/cm^2) with an energy of 100 mW/cm^2. By measuring the size of both cancer tissues for 15 days, the photodynamic anticancer effect and the resulting immune anti-cancer effect were confirmed.

[7] = test system: HCT-116 (human colon cancer); test: Cancer cell killing, MTT assay at pH 7.4 and pH 6.5; type: cell-based; conditions: regardless of pH (7.4, 6.5)
Method: (§1) In order to confirm the cancer cell killing effect of the CA and API-based pH-sensitive carbon nanoparticle drug carrier encapsulated with doxorubicin prepared in Example 4, HCT-116 (human colon cancer), SKBR-3 (human breast cancer), PANC-1 (human pancreas cancer) cells were used. The pH-sensitive carbon nanoparticle drug carrier was treated by concentration of doxorubicin in culture solutions of pH 7.4 and pH 6.5, respectively, and the comparison group was comparatively evaluated by treating doxorubicin alone by concentration. Cell death was performed using the MTT assay, and analyzed at 490 nm using a microplate reader.

[8] = test system: PANC-1 (human pancreas cancer); test: as above; type: cell-based; conditions: regardless of pH (7.4, 6.5)
Method: as §1

[9] = test system: SKBR-3 (human breast cancer); test: as above; type: cell-based; conditions: regardless of pH (7.4, 6.5)
Method: as §1

[10] = test system: HCT-116 (Human colon cancer) cells; test: Inhibition of cancer growth in vivo, cancer tissue size for 15 days; set-up: species or system BALB/c mice; conditions: intravenous, 2 mg/ml based on doxorubicin
Method: After that, the size of the cancer tissue was measured for 15 days to confirm the anticancer effect.

Which pKa value [1] does the source give for NCCCn1ccnc1 [API, 1-(3-aminopropyl) imidazole] here?
The pKa value was 6.9.

For C=Cc1c(C)c2cc3nc(c(CC(=O)O)c4[nH]c(cc5nc(cc1[nH]2)C(C)=C5CC)c(C)c4C(=O)O)[C@@H](CCC(=O)O)[C@@H]3C [Free Ce6, chlorine e6], which singlet oxygen generation [2] is on record?
Its singlet oxygen generation is “hardly produce singlet oxygen”.

And the “singlet oxygen generation according to pH” value ([2]; pH 7.4 and pH 6.5, 670 nm laser, 50 mW/cm^2)?
Its value is “hardly generated singlet oxygen”.

And the “degree of influx into cells” value [3]?
The value was “similar”.

What about the cell death rate [4] of the same compound?
Its cell death rate is 50%.

What about the “in vivo fluorescence behavior” value [5] of the same compound?
Its value is “fluorescence quickly disappeared”.

What about the “cancer growth regardless of laser irradiation” value [6] of the same compound?
Its value is “cancer rapidly grows”.

Which singlet oxygen generation [2] does the source give for pheophorbide a [Pheo A] here?
The singlet oxygen generation was “hardly produce singlet oxygen”.

Which “concentration at which cells died” value [7] does the source give for COc1cccc2c1C(=O)c1c(O)c3c(c(O)c1C2=O)C[C@@](O)(C(=O)CO)C[C@@H]3O[C@H]1C[C@H](N)[C@H](O)[C@H](C)O1 [Free DOX, doxorubicin] here?
Its value is “about 50 ug/ml”.

And the “concentration at which cells died” value [8]?
The value was “about 50 ug/ml”.

What about the “concentration at which cells died” value [9] of the same compound?
The value was “about 50 ug/ml”.

What about the “cancer growth in vivo” value [10] of the same compound?
The value was “cancer continued to grow”.
